The test system of one test is hyaluronic acid. Conditions: ex vivo human skin model; cited from earlier work.
Test [1] relates to 3T3-L1 adipocytes and J774 macrophages. Nature of the test: Macrophage clustering on adipocytes. The class given is cell-based. Conditions: for number of macrophages associated with adipocytes: FIG. 5A, ~100 adipocytes/condition. The method, then: 3T3-L1 adipocytes were untreated or treated with TNF-alpha (˜25 nM) for 24 hours. One set of TNF-alpha treated adipocytes was also treated with hexapeptide-11 (0.1 mg/mL). One set of J774 macrophages was treated with hexapeptide-11 (0.1 mg/mL) for 24 hours. The macrophages were added to the adipocytes. After an 1 hour incubation, the cells were placed on ice and incubated with a fluorescently labeled Cholera toxin B subunit to label the cell surface of macrophages a fluorescent green. The cells were then fixed with 4% formaldehyde for 15 minutes and then incubated with LipidTox to label the lipid droplets within the adipocytes a fluorescent red color. Four conditions were performed: (1) J774 macrophages with untreated adipocytes; (2) J774 macrophages with TNF-alpha treated adipocytes; (3) J774 macrophages with TNF alpha treated adipocytes plus hexapeptide-11 in the 1 hour incubation of both cell types; and (4) peptide pretreated J774 macrophages with hexapeptide-11 pretreated TNF-alpha treated adipocytes incubated together in the presence of hexapeptide-11. Images taken with a 60× objective were analyzed by counting the number of macrophages associated with ˜100 adipocytes for each condition.

A further test has as its system Dermal Fibroblasts. In words: Gene expression in fibroblasts by quantitative-PCR. Conditions: 72 hours exposure, vs untreated control. The test is classed as cell-based. The protocol:
Gene expression in fibroblasts were measured following 72 hours of exposure to hexapeptide-11.
Dermal Fibroblasts were plated in cell culture media and allowed to grow to approximately 85-90% confluency following manufacturer's guidelines. Cells were harvested and plated at 10,000 cells per cm^2 in 6-well dishes cultured for 3 days. On the third day, confluency was estimated by microscopy and the cell culture media was replaced. The cells were treated with hexpapeptide-11 at a 100× concentration or control buffer without peptide. The time at initial exposure to the peptide is considered time, t=0. Treated and untreated control cells were harvested, counted and extracted for RNA at 24 hours, 48 hours, and 72 hours following t=0. Cell pellets and isolated RNA were stored at −80° C. until analysis by quantitative-PCR.
The 72-hour time point RNA samples (treated and untreated) were used for gene expression analysis. RNA was converted to first strand cDNA and analyzed by quantitative-PCR.

`CCCCCCCC(=O)CCc1ccc(O)c(OC)c1` [hydroxymethoxyphenyl decanone]: in the test with hyaluronic acid, the “stimulation of dermal hyaluronic acid level versus placebo” value is 259% and the “stimulation of epidermal hyaluronic acid level versus placebo” value is reported as 198%.

Regarding “Phe-Val-Ala-Pro-Phe-Pro (FVAPFP) [hexapeptide-11]”, the macrophage clustering entry in test [1] (0.1 mg/mL, TNF-alpha treated adipocytes) is “increase macrophage clustering”. For the same compound, the “number of macrophages associated with adipocytes” value in test [1] is listed as “increased”. Further, the adipocyte droplet breakdown result in test [1] (TNF-alpha and peptide treatments, FIG. 4 right panel) was “further adipocyte droplet breakdown”. Also, in the test on Dermal Fibroblasts, the “Fold Change AMBRA1” value turned out to be 3.59 fold, the “Fold Change ATG4A” value came out at 3.29 fold, the “Fold Change ATG5” value is 2.00 fold and the “Fold Change CASP3” value amounted to 2.24 fold. Moreover, in the test with Dermal Fibroblasts, the “Fold Change COL5A2” value is on record as −65.65 fold, the “Fold Change IGF1” value was −901.80 fold, the “Fold Change MAPK14” value is −83.67 fold and the “Fold Change PDGFRA” value is −369.65 fold. Further, in the test on Dermal Fibroblasts, the “Fold Change PSMB5” value is 2.56 fold, the “Fold Change SOD3” value was −101.59 fold and the “Fold Change TNF” value is −92.41 fold.

TNF-alpha [reference compound]: the “number of macrophages associated with adipocytes” value in test [1] was “greatly increased”.

The values above are taken from patent publication US11752084B2, “Methods for fat reduction or elimination of lipid droplets” (Alastin Skincare, Inc., priority 2017, dated 2023).
